{
  "source": "patent US9795652B2",
  "about": "“Use of endogenous antioxidant proteins in the treatment of stroke” (University of South Florida, priority 2010, dated 2017)",
  "test_system": "primary rat oligodendrocyte cultures",
  "experiment": "LIF protection of oligodendrocytes from oxygen glucose deprivation (extracellular LDH)",
  "type": "cell-based",
  "conditions": "24 hours OGD",
  "method": "OL cell death in culture was determined using the LDH assay (Takara Bio, Inc., Madison, Wis.), since cell death is associated with LDH release through the plasma membrane. LDH is present in a large number of tissues, like the heart, liver, kidney, skeletal muscle, brain, blood cells, and lungs. Tissue breakdown releases LDH, thereby elevating circulating LDH and indicating tissue damage. Briefly, 100 μl of tissue culture media from each experimental group was added to a 96-well plate and 100 μl of LDH reagent was added to each well. Plates were incubated for 30 min at 25° C. and absorbances were read on a microplate reader at a 548 nm wavelength. The media from HUCB cell only cultures served as a control for HUCB cell death. The absorbance of HUCB cell only media, as well as the absorbance of media only, was subtracted from the total absorbance of the OL wells to eliminate background LDH activity.\nAn oxygen deprivation model was used to test the effect of LIF on primary rat oligodendrocyte cultures. Cells were grown in neurobasal medium containing B27 and […] glutamine prior to OGD. To simulate ischemic conditions, the neurobasal medium was replaced with DMEM containing no glucose (OGD). The cells were then exposed to 1% O2, 5% CO2 and 94% N2 for 24 hours. No LIF (OGD) or LIF was added to the cells, at the concentrations indicated. […]",
  "data": [
    {"substance": "leukemia inhibitory factor [LIF]", "values": [
      {"measurement": "extracellular LDH levels compared to untreated (OGD)", "setting": "LIF 100 pg", "result": "about 47.6%"},
      {"measurement": "extracellular LDH compared to untreated cells", "setting": "LIF 50 ng", "result": "approximately 2.7%"}
    ]}
  ]
}
